Drawing on ChEMBL document CHEMBL3045984, “Resistance to HPPD-inhibiting herbicides in a population of waterhemp (Amaranthus tuberculatus) from Illinois, United States” (2011), this text covers Activity for three compounds.

Holding throughout (type): functional
Assay [1] has as its system Amaranthus tuberculatus. Kind of assay: Herbicidal activity against Amaranthus tuberculatus biotype ACR assessed as visual injury at 92 g/ha applied as spray after 7 days under green house conditions relative to untreated control.
Assay [2] has as its system Amaranthus tuberculatus. The assay is described as follows: Herbicidal activity against Amaranthus tuberculatus biotype MCR 16 assessed as visual injury at 92 g/ha applied as spray after 14 days under green house conditions relative to untreated control.
In assay [3] the test system is Amaranthus tuberculatus. Kind of assay: Herbicidal activity against Amaranthus tuberculatus biotype MCR 16 assessed as visual injury at 92 g/ha applied as spray after 21 days under green house conditions relative to untreated control.
For assay [4], the system named is Amaranthus tuberculatus. The assay is described as follows: Herbicidal activity against Amaranthus tuberculatus biotype WCS assessed as visual injury at 92 g/ha applied as spray after 21 days under green house conditions relative to untreated control.
Assay [5] concerns Amaranthus tuberculatus. The assay is described as follows: Herbicidal activity against Amaranthus tuberculatus biotype WCS assessed as visual injury at 92 g/ha applied as spray after 14 days under green house conditions relative to untreated control.
The subject of assay [6] is Amaranthus tuberculatus. The assay is described as follows: Herbicidal activity against Amaranthus tuberculatus biotype MCR 16 assessed as visual injury at 92 g/ha applied as spray after 7 days under green house conditions relative to untreated control.
For assay [7], the system named is Amaranthus tuberculatus. Kind of assay: Herbicidal activity against Amaranthus tuberculatus biotype MCR 15 assessed as visual injury at 92 g/ha applied as spray after 21 days under green house conditions relative to untreated control.
The subject of assay [8] is Amaranthus tuberculatus. The assay is described as follows: Herbicidal activity against Amaranthus tuberculatus biotype MCR 15 assessed as visual injury at 92 g/ha applied as spray after 14 days under green house conditions relative to untreated control.
Assay [9] relates to Amaranthus tuberculatus. The assay is described as follows: Herbicidal activity against Amaranthus tuberculatus biotype MCR 12 assessed as visual injury at 92 g/ha applied as spray after 7 days under green house conditions relative to untreated control.
Assay [10] has as its system Amaranthus tuberculatus. Kind of assay: Herbicidal activity against Amaranthus tuberculatus biotype ACR assessed as visual injury at 92 g/ha applied as spray after 21 days under green house conditions relative to untreated control.
Assay [11] relates to Amaranthus tuberculatus. Kind of assay: Herbicidal activity against Amaranthus tuberculatus biotype MCR 12 assessed as visual injury at 92 g/ha applied as spray after 21 days under green house conditions relative to untreated control.
The subject of assay [12] is Amaranthus tuberculatus. Kind of assay: Herbicidal activity against Amaranthus tuberculatus biotype WCS assessed as visual injury at 92 g/ha applied as spray after 7 days under green house conditions relative to untreated control.
In assay [13] the test system is Amaranthus tuberculatus. The assay is described as follows: Herbicidal activity against Amaranthus tuberculatus biotype MCR 12 assessed as visual injury at 92 g/ha applied as spray after 14 days under green house conditions relative to untreated control.
Assay [14] has as its system Amaranthus tuberculatus. The assay is described as follows: Herbicidal activity against Amaranthus tuberculatus biotype ACR assessed as visual injury at 92 g/ha applied as spray after 14 days under green house conditions relative to untreated control.
Assay [15] relates to Amaranthus tuberculatus. The assay is described as follows: Herbicidal activity against Amaranthus tuberculatus biotype MCR 15 assessed as visual injury at 92 g/ha applied as spray after 7 days under green house conditions relative to untreated control.
Assay [16] concerns Amaranthus tuberculatus. The assay is described as follows: Herbicidal activity against Amaranthus tuberculatus biotype MCR 16 assessed as visual injury at 560 g/ha applied as spray after 7 days under green house conditions relative to untreated control.
Assay [17] has as its system Amaranthus tuberculatus. Kind of assay: Herbicidal activity against Amaranthus tuberculatus biotype MCR 12 assessed as visual injury at 560 g/ha applied as spray after 7 days under green house conditions relative to untreated control.
In assay [18] the test system is Amaranthus tuberculatus. The assay is described as follows: Herbicidal activity against Amaranthus tuberculatus biotype WCS assessed as visual injury at 560 g/ha applied as spray after 14 days under green house conditions relative to untreated control.
Assay [19] relates to Amaranthus tuberculatus. The assay is described as follows: Herbicidal activity against Amaranthus tuberculatus biotype MCR 15 assessed as visual injury at 560 g/ha applied as spray after 21 days under green house conditions relative to untreated control.
The subject of assay [20] is Amaranthus tuberculatus. Kind of assay: Herbicidal activity against Amaranthus tuberculatus biotype MCR 15 assessed as visual injury at 560 g/ha applied as spray after 7 days under green house conditions relative to untreated control.
For assay [21], the system named is Amaranthus tuberculatus. The assay is described as follows: Herbicidal activity against Amaranthus tuberculatus biotype MCR 15 assessed as visual injury at 560 g/ha applied as spray after 14 days under green house conditions relative to untreated control.
Assay [22] relates to Amaranthus tuberculatus. The assay is described as follows: Herbicidal activity against Amaranthus tuberculatus biotype WCS assessed as visual injury at 560 g/ha applied as spray after 7 days under green house conditions relative to untreated control.
Assay [23] deals with Amaranthus tuberculatus. The assay is described as follows: Herbicidal activity against Amaranthus tuberculatus biotype MCR 12 assessed as visual injury at 560 g/ha applied as spray after 14 days under green house conditions relative to untreated control.
The subject of assay [24] is Amaranthus tuberculatus. The assay is described as follows: Herbicidal activity against Amaranthus tuberculatus biotype MCR 16 assessed as visual injury at 560 g/ha applied as spray after 21 days under green house conditions relative to untreated control.
The subject of assay [25] is Amaranthus tuberculatus. Kind of assay: Herbicidal activity against Amaranthus tuberculatus biotype WCS assessed as visual injury at 560 g/ha applied as spray after 21 days under green house conditions relative to untreated control.
For assay [26], the system named is Amaranthus tuberculatus. The assay is described as follows: Herbicidal activity against Amaranthus tuberculatus biotype MCR 12 assessed as visual injury at 560 g/ha applied as spray after 21 days under green house conditions relative to untreated control.
Assay [27] concerns Amaranthus tuberculatus. Kind of assay: Herbicidal activity against Amaranthus tuberculatus biotype ACR assessed as visual injury at 560 g/ha applied as spray after 7 days under green house conditions relative to untreated control.
In assay [28] the test system is Amaranthus tuberculatus. Kind of assay: Herbicidal activity against Amaranthus tuberculatus biotype ACR assessed as visual injury at 560 g/ha applied as spray after 21 days under green house conditions relative to untreated control.
For assay [29], the system named is Amaranthus tuberculatus. The assay is described as follows: Herbicidal activity against Amaranthus tuberculatus biotype MCR 16 assessed as visual injury at 560 g/ha applied as spray after 14 days under green house conditions relative to untreated control.
In assay [30] the test system is Amaranthus tuberculatus. Kind of assay: Herbicidal activity against Amaranthus tuberculatus biotype ACR assessed as visual injury at 560 g/ha applied as spray after 14 days under green house conditions relative to untreated control.
Assay [31] deals with Amaranthus tuberculatus. The assay is described as follows: Herbicidal activity against Amaranthus tuberculatus biotype ACR assessed as visual injury at 18 g/ha applied as spray after 14 days under green house conditions relative to untreated control.
The test system of assay [32] is Amaranthus tuberculatus. Kind of assay: Herbicidal activity against Amaranthus tuberculatus biotype MCR 16 assessed as visual injury at 18 g/ha applied as spray after 14 days under green house conditions relative to untreated control.
In assay [33] the test system is Amaranthus tuberculatus. The assay is described as follows: Herbicidal activity against Amaranthus tuberculatus biotype WCS assessed as visual injury at 18 g/ha applied as spray after 7 days under green house conditions relative to untreated control.
The subject of assay [34] is Amaranthus tuberculatus. The assay is described as follows: Herbicidal activity against Amaranthus tuberculatus biotype WCS assessed as visual injury at 18 g/ha applied as spray after 21 days under green house conditions relative to untreated control.
Assay [35] has as its system Amaranthus tuberculatus. The assay is described as follows: Herbicidal activity against Amaranthus tuberculatus biotype MCR 16 assessed as visual injury at 18 g/ha applied as spray after 7 days under green house conditions relative to untreated control.
The test system of assay [36] is Amaranthus tuberculatus. The assay is described as follows: Herbicidal activity against Amaranthus tuberculatus biotype ACR assessed as visual injury at 18 g/ha applied as spray after 7 days under green house conditions relative to untreated control.
Assay [37] relates to Amaranthus tuberculatus. The assay is described as follows: Herbicidal activity against Amaranthus tuberculatus biotype MCR 15 assessed as visual injury at 18 g/ha applied as spray after 21 days under green house conditions relative to untreated control.
Assay [38] concerns Amaranthus tuberculatus. Kind of assay: Herbicidal activity against Amaranthus tuberculatus biotype MCR 15 assessed as visual injury at 18 g/ha applied as spray after 14 days under green house conditions relative to untreated control.
Assay [39] relates to Amaranthus tuberculatus. Kind of assay: Herbicidal activity against Amaranthus tuberculatus biotype MCR 12 assessed as visual injury at 18 g/ha applied as spray after 7 days under green house conditions relative to untreated control.
Assay [40] concerns Amaranthus tuberculatus. Kind of assay: Herbicidal activity against Amaranthus tuberculatus biotype MCR 12 assessed as visual injury at 18 g/ha applied as spray after 21 days under green house conditions relative to untreated control.
The subject of assay [41] is Amaranthus tuberculatus. Kind of assay: Herbicidal activity against Amaranthus tuberculatus biotype MCR 15 assessed as visual injury at 18 g/ha applied as spray after 7 days under green house conditions relative to untreated control.
Assay [42] deals with Amaranthus tuberculatus. Kind of assay: Herbicidal activity against Amaranthus tuberculatus biotype ACR assessed as visual injury at 18 g/ha applied as spray after 21 days under green house conditions relative to untreated control.
For assay [43], the system named is Amaranthus tuberculatus. The assay is described as follows: Herbicidal activity against Amaranthus tuberculatus biotype MCR 12 assessed as visual injury at 18 g/ha applied as spray after 14 days under green house conditions relative to untreated control.
Assay [44] has as its system Amaranthus tuberculatus. Kind of assay: Herbicidal activity against Amaranthus tuberculatus biotype WCS assessed as visual injury at 18 g/ha applied as spray after 14 days under green house conditions relative to untreated control.
In assay [45] the test system is Amaranthus tuberculatus. Kind of assay: Herbicidal activity against Amaranthus tuberculatus biotype MCR 16 assessed as visual injury at 18 g/ha applied as spray after 21 days under green house conditions relative to untreated control.

As for `CS(=O)(=O)c1ccc(C(=O)C2C(=O)CCCC2=O)c(Cl)c1COCC(F)(F)F` [TEMBOTRIONE], the Activity in the assay with Amaranthus tuberculatus [1] is 56%; in the assay with Amaranthus tuberculatus [2] it was 46%; with Amaranthus tuberculatus [3], 31%; with Amaranthus tuberculatus [4], 100%; in the assay with Amaranthus tuberculatus [5], 96%; with Amaranthus tuberculatus [6], 43%. Besides, the Activity worked out at 35% in the assay on Amaranthus tuberculatus [7]; 34% in the assay with Amaranthus tuberculatus [8]; 40% with Amaranthus tuberculatus [9]; 94% in the assay on Amaranthus tuberculatus [10]; 17% with Amaranthus tuberculatus [11]; 84% with Amaranthus tuberculatus [12]. Moreover, the Activity in the assay with Amaranthus tuberculatus [13] was determined as 30%; in the assay on Amaranthus tuberculatus [14] it was 91%; in the assay on Amaranthus tuberculatus [15], 48%.
`CCNc1nc(Cl)nc(NC(C)C)n1` [ATRAZINE]: the Activity stood at 5% in the assay with Amaranthus tuberculatus [16]; 7% in the assay with Amaranthus tuberculatus [17]; 87% in the assay with Amaranthus tuberculatus [18]; 1% in the assay on Amaranthus tuberculatus [19]; 5% in the assay on Amaranthus tuberculatus [20]; 2% with Amaranthus tuberculatus [21]. Also, the Activity in the assay on Amaranthus tuberculatus [22] was determined as 83%; with Amaranthus tuberculatus [23], 4%; with Amaranthus tuberculatus [24] it was 1%; with Amaranthus tuberculatus [25], 81%; with Amaranthus tuberculatus [26] it was 4%; in the assay on Amaranthus tuberculatus [27], 14%. Also, the Activity with Amaranthus tuberculatus [28] came to 4%; in the assay on Amaranthus tuberculatus [29] it was 1%; with Amaranthus tuberculatus [30] it was 8%.
For the compound `Cc1c(C(=O)c2cnn(C)c2O)ccc(S(C)(=O)=O)c1C1=NOCC1` [TOPRAMEZONE], the Activity in the assay on Amaranthus tuberculatus [31] worked out at 93%; in the assay on Amaranthus tuberculatus [32] it was 64%; in the assay on Amaranthus tuberculatus [33], 84%; in the assay on Amaranthus tuberculatus [34], 100%; with Amaranthus tuberculatus [35] it was 54%; with Amaranthus tuberculatus [36] it was 69%. For the same compound, the Activity in the assay with Amaranthus tuberculatus [37] was 42%; in the assay with Amaranthus tuberculatus [38], 59%; in the assay on Amaranthus tuberculatus [39] it was 41%; in the assay on Amaranthus tuberculatus [40] it was 36%; in the assay on Amaranthus tuberculatus [41], 52%; in the assay with Amaranthus tuberculatus [42], 96%. Besides, the Activity turned out to be 42% in the assay with Amaranthus tuberculatus [43], 96% with Amaranthus tuberculatus [44] and 58% in the assay on Amaranthus tuberculatus [45].
